Results from publication PMC8421406, “C9orf72-derived arginine-rich poly-dipeptides impede phase modifiers” (Nature Communications, 2021).
Where no end group is shown, it is not given here. HA = HA epitope tag

How the values were obtained:
Format in all cases: biochemical
[1] = system: MBP:FUS (full-length FUS droplets) / Kapβ2; test: Turbidity assay of FUS droplet formation (OD 395 nm); conditions: equimolar poly-dipeptide and Kapβ2 (8 μM)
[2] = system: GFP:FUS-LC:NLS / mCh:FUS-LC hydrogel; test: Hydrogel binding assay, GFP:FUS-LC:NLS on mCh:FUS-LC hydrogel; conditions: Kapβ2 0.1-1.0 µM; PR20 with 1.0 µM Kapβ2
Procedure: The experiment was independently repeated three times with similar results. Here, 10 μm scale bars are shown in the image. e Graphical description of hydrogel binding assay. Hydrogels of mCh:LC-domain accumulate GFP:LC-domain as it co-polymerizes. f Hydrogel binding assay for FUS-LC in the absence and presence of Kapβ2. mCh:FUS-LC (lower images) were incubated with 1.0 µM of GFP (left panel) or 1.0 µM of GFP:FUS-LC:NLS (right panel) in the presence of different concentrations of Kapβ2 (left to right: 0.1, 0.3, and 1.0 µM). g Quantitative analysis of Fig. 1f. Relative intensity of GFP signals is shown as the mean of three independent experiments ± SD, analyzed by one-way ANOVA followed by Dunnett’s multiple comparison test (**P < 0.01, ***P < 0.001). h Hydrogel binding assay for FUS-LC in the absence and presence of Kapβ2 and/or PR20. Hydrogel droplets of mCh:FUS-LC (lower images) were incubated with 1.0 µM of GFP (left panel) or GFP:FUS-LC:NLS (right panel). GFP:FUS-LC:NLS containing Kapβ2 (1.0 µM) was challenged for homotypic polymer extension in the absence or presence of different concentration of PR20. i Quantitative analysis of Fig. 1h. Relative intensity of GFP signals is shown as the mean of three independent experiments ± SD, analyzed by one-way ANOVA followed by Dunnett’s multiple comparison test (**P < 0.01). Source data are provided as a Source Data file. […]

[3] = system: GFP:hnRNPA2-LC / mCh:hnRNPA2-LC hydrogel; test: Hydrogel binding assay, hnRNPA2-LC; conditions: 1.0 µM GFP:hnRNPA2-LC, Kapβ2 1.0 µM, PR20 1.0 µM
From the text: (§1) Expression plasmids for recombinant proteins (GFP/mCherry fusion LC-domain of FUS (residue 2–214, GFP/mCh:FUS-LC) and GFP/mCherry fusion LC-domain of hnRNPA2 (residue 181–341, GFP/mCh:hnRNPA2-LC)) were obtained from the Steven L. McKnight Laboratory. Expression plasmid for GFP:FUS-LC fusion NLS (residue 501–526, GFP:FUS-LC:NLS), mCh fusion LC-domain of TDP43 (residue 262–414, mCh:TDP43-LC), and GFP-tagged cNLS (residue 78–99) fusion TDP43-LC (GFP:cNLS:TDP43-LC) were constructed using In-Fusion HD Cloning Kit (Takara Bio, Inc.). GFP/mCh:FUS-LC, GFP:FUS-LC:NLS, and GFP/mCh:hnRNPA2-LC were expressed in E. coli BL21(DE3) cells with 0.5 mM IPTG at 20 °C overnight and purified by Ni-NTA Agarose (FUJIFILM Wako Pure Chemical Corporation), as described in a previous study. GFP:cNLS:TDP43-LC were expressed with 1.0 mM IPTG at 37 °C for 3 h and mCh:TDP43-LC were expressed with 0.5 mM IPTG at 16 °C overnight. GFP:cNLS:TDP43-LC and mCh:TDP43-LC were purified by Ni-NTA as described in a previous study[48] with some modifications. […] Relative intensity of GFP signals across the hydrogel droplets were measured in triplicate by using the profile plot mode in ImageJ. […]

[4] = system: GFP:cNLS:TDP43-LC / mCh:TDP43-LC hydrogel; test: Hydrogel binding assay, TDP43-LC with Impα/β1; conditions: 1.0 µM GFP:cNLS:TDP43-LC, Impα/β1 1.0 µM/1.0 µM, PR20 1.0 µM
From the text: as §1

## PR20: twenty repeats of proline:arginine with an HA epitope tag at the C terminus, synthesized by SCRUM, Inc. (PRPRPRPRPRPRPRPRPRPRPRPRPRPRPRPRPRPRPRPR-{HA})
[1]
  Inhibition of the ability of Kapβ2 to melt FUS droplets (turbidity): inhibited the ability of Kapβ2
[2]
  Effect on hydrogel binding of GFP:FUS-LC:NLS: inhibited the ability of Kapβ2 from blocking the hydrogel binding of GFP:FUS-LC:NLS
[3]
  Effect on ability of Kapβ2 to block hydrogel binding of hnRNPA2-LC: inhibited the ability of Kapβ2
[4]
  Effect on ability of Impα/β1 to modify phase transition of TDP43-LC: inhibited the ability of other NIRs Impα/β1 in modifying the phase transition of LC-domain of TDP43
